Results reported in patent US20240376097A1, “BCL-2 Inhibitor” (BeiGene Ltd., priority 2020, published 2024).

Key:
[1] = target: Recombinant human Bcl-2 protein (Homo sapiens (Human), UniProt P10415); experiment: Bcl-2 TR-FRET Assay; type: binding; conditions: Bcl-2 wild type, TR-FRET; read-out: Biochemical assay (IC50, nM) Bcl-2 WT
Summary of the method: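 In pH 7.5 phosphate buffer containing NaCl, EDTA, Tween-20 and BSA, 0.05 nM Bcl-2 saw serially diluted compound for 0.5 h before 0.5 nM FITC-Bak peptide was added. Signal ratio at 520/490 nm after 1 h yielded IC50.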

[2] = target: recombinant human Bcl-2-G101V protein (Homo sapiens (Human), UniProt P10415, G101V); experiment: Bcl-2-G101V TR-FRET Assay; type: binding; conditions: Bcl-2 G101V mutant, TR-FRET; read-out: Biochemical assay (IC50, nM) Bcl-2 G101V
Summary of the method: (§1)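 TR-FRET read at excitation 337 nm with emission at 490 nm and 520 nm. Inhibition of Bcl-2-G101V binding to its ligand across increasing compound concentrations was calculated from the 490/520 nm fluorescence ratio, and IC50 values came from four-parameter logistic fits.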

[3] = system: recombinant human Bcl-2-G101V protein; experiment: Bcl-2-G101V TR-FRET Assay; type: binding; conditions: ratio of biochemical IC50 Bcl-2 G101V / Bcl-2 WT
Summary of the method: as §1

[4] = system: RS4;11 (BCL-2 dependent acute lymphoblastic leukemia cell line); experiment: RS4;11 Cell Proliferation Assay; type: cell-based; conditions: Homo sapiens, RS4-11, RS4;11 cells, read-out: Cellular proliferation assay (IC50, nM) RS4
Summary of the method: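 Viability measured via CellTiter-Glo luminescence after a 48 h, 37 °C exposure to compounds (10 points, highest 1 μM). Seeding was 50,000 RS4;11 cells per well in 10% FBS RPMI-1640; IC50 given as mean.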

[5] = system: BCL-2 G101V knock-in cell line H96 (derive from RS4;11); experiment: Bcl 2-G101V Knock-In RS4;11 Cell Proliferation Assay; type: cell-based; conditions: Homo sapiens, RS4;11 Bcl-2 G101V knock-in clone H96, 48 hrs, CellTiter-GLO, read-out: Cellular proliferation assay (IC50, nM) RS4
Summary of the method: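 CellTiter-Glo luminescence after 48 h, 37 °C compound treatment (10 concentrations, maximum 1 μM or 10 μM) gave mean IC50 values. Cells were 50,000 per well of H96, a BCL2-G101V knock-in single clone derived from RS4;11 by Cas9 editing.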

SMILES | IC50 [1] | IC50 [2] | Ratio of Bcl-2 G101V/WT [3] | IC50 [4] | IC50 [5]
COc1cc(CN2CCN(C3CC4(CCN(c5ccc(C(=O)NS(=O)(=O)c6ccc(NC[C@H]7CC[C@](C)(O)CC7)c([N+](=O)[O-])c6)c(Oc6cnc7[nH]cc(F)c7c6)c5)CC4)C3)[C@H](c3ccccc3C(C)C)C2)ccc1C(C)C [Example 264, 2-((3-fluoro-1H-pyrrolo[2,3-b]pyridin-5-yl)oxy)-N-((4-((((1r,4r)-4-hydroxy-4-methylcyclohexyl)methyl)amino)-3-nitrophenyl)sulfonyl)-4-(2-((R)-4-(4-isopropyl-3-methoxybenzyl)-2-(2-isopropylphenyl)piperazin-1-yl)-7-azaspiro[3.5]nonan-7-yl)benzamide] | 1.9 nM | 7.3 nM | 3.8 | 0.26 nM | 0.78 nM
CC(C)c1ccccc1[C@@H]1CN(Cc2ccc3c(c2)OCC3)CCN1C1CC2(C1)CN(c1ccc(C(=O)NS(=O)(=O)c3ccc(NC[C@H]4CC[C@](C)(O)CC4)c([N+](=O)[O-])c3)c(Oc3cnc4[nH]cc(F)c4c3)c1)C2 [Example 297, 4-(6-((R)-4-((2,3-dihydrobenzofuran-6-yl)methyl)-2-(2-isopropylphenyl)piperazin-1-yl)-2-azaspiro[3.3]heptan-2-yl)-2-((3-fluoro-1H-pyrrolo[2,3-b]pyridin-5-yl)oxy)-N-((4-((((1r,4r)-4-hydroxy-4-methylcyclohexyl)methyl)amino)-3-nitrophenyl)sulfonyl)benzamide] | 0.13 nM | 0.4 nM | 3.0 | 0.25 nM | 1.16 nM
COc1cc(CN2CCN(C3CC4(CCN(c5ccc(C(=O)NS(=O)(=O)c6ccc(NC[C@H]7CC[C@](C)(O)CC7)c([N+](=O)[O-])c6)c(Oc6cnc7[nH]ccc7c6)c5)CC4)C3)C(c3ccccc3C(C)C)C2)ccc1C1CC1 (stereo partly drawn) [Example 156, 2-((1H-pyrrolo[2,3-b]pyridin-5-yl)oxy)-4-(2-(4-(4-cyclopropyl-3-methoxybenzyl)-2-(2-isopropylphenyl)piperazin-1-yl)-7-azaspiro[3.5]nonan-7-yl)-N-((4-((((1r,4r)-4-hydroxy-4-methylcyclohexyl)methyl)amino)-3-nitrophenyl)sulfonyl)benzamide] | 0.73 nM | 3.6 nM | 4.9 | 0.375 nM | 1.42 nM
CC(C)c1ccccc1C1CN(Cc2cccc3c2CCCO3)CCN1C1CC2(CCN(c3ccc(C(=O)NS(=O)(=O)c4ccc(NC[C@H]5CC[C@](C)(O)CC5)c([N+](=O)[O-])c4)c(Oc4cnc5[nH]ccc5c4)c3)CC2)C1 (stereo partly drawn) [Example 133, 2-((1H-pyrrolo[2,3-b]pyridin-5-yl)oxy)-4-(2-(4-(chroman-5-ylmethyl)-2-(2-isopropylphenyl)piperazin-1-yl)-7-azaspiro[3.5]nonan-7-yl)-N-((4-((((1r,4r)-4-hydroxy-4-methylcyclohexyl)methyl)amino)-3-nitrophenyl)sulfonyl)benzamide] | 0.57 nM | 1.9 nM | 3.4 | 0.34 nM | 2.8 nM
COc1cc(CN2CCN(C3CC4(C3)CN(c3ccc(C(=O)NS(=O)(=O)c5ccc(NC[C@H]6CC[C@](C)(O)CC6)c([N+](=O)[O-])c5)c(Oc5cnc6[nH]cc(F)c6c5)c3)C4)[C@H](c3ccccc3C(C)C)C2)ccc1C(C)C [Example 269, 2-((3-fluoro-1H-pyrrolo[2,3-b]pyridin-5-yl)oxy)-N-((4-((((1r,4r)-4-hydroxy-4-methylcyclohexyl)methyl)amino)-3-nitrophenyl)sulfonyl)-4-(6-((R)-4-(4-isopropyl-3-methoxybenzyl)-2-(2-isopropylphenyl)piperazin-1-yl)-2-azaspiro[3.3]heptan-2-yl) benzamide] | 2.1 nM | 4.9 nM | 2.4 | 0.17 nM | 0.41 nM
CC(C)c1ccccc1C1CN(Cc2cccc(OC3CC3)c2)CCN1C1CC2(CCN(c3ccc(C(=O)NS(=O)(=O)c4ccc(NC[C@H]5CC[C@](C)(O)CC5)c([N+](=O)[O-])c4)c(Oc4cnc5[nH]ccc5c4)c3)CC2)C1 (stereo partly drawn) [Example 178, 2-((1H-pyrrolo[2,3-b]pyridin-5-yl)oxy)-4-(2-(4-(3-cyclopropoxybenzyl)-2-(2-isopropylphenyl)piperazin-1-yl)-7-azaspiro[3.5]nonan-7-yl)-N-((4-((((1r,4r)-4-hydroxy-4-methylcyclohexyl)methyl)amino)-3-nitrophenyl)sulfonyl)benzamide] | 0.52 nM | 1.5 nM | 2.9 | 0.64 nM | 4.87 nM
CC(C)c1ccccc1[C@@H]1CN(Cc2cnn(C)c2)CCN1C1CC2(CCN(c3ccc(C(=O)NS(=O)(=O)c4ccc(NC[C@H]5CC[C@](C)(O)CC5)c([N+](=O)[O-])c4)c(Oc4cnc5[nH]ccc5c4)c3)CC2)C1 (single isomer, unassigned) [Example 22b, 2-((1H-pyrrolo[2,3-b]pyridin-5-yl)oxy)-N-((4-((((1r,4r)-4-hydroxy-4-methylcyclohexyl)methyl)amino)-3-nitrophenyl)sulfonyl)-4-(2-((S or R)-2-(2-isopropylphenyl)-4-((1-methyl-1H-pyrazol-4-yl)methyl)piperazin-1-yl)-7-azaspiro[3.5]nonan-7-yl)benzamide] | 0.038 nM | 1.9 nM | 50.0 | 7.6 nM | 57.3 nM
CC(C)c1ccccc1[C@@H]1CN(Cc2ccnc3c2OC(C)(C)CO3)CCN1C1CC2(C1)CN(c1ccc(C(=O)NS(=O)(=O)c3ccc(NC[C@H]4CC[C@](C)(O)CC4)c([N+](=O)[O-])c3)c(Oc3cnc4[nH]cc(F)c4c3)c1)C2 [Example 313, 4-(6-((R)-4-((2,2-dimethyl-2,3-dihydro-[1,4]dioxino[2,3-b]pyridin-8-yl)methyl)-2-(2-isopropylphenyl)piperazin-1-yl)-2-azaspiro[3.3]heptan-2-yl)-2-((3-fluoro-1H-pyrrolo[2,3-b]pyridin-5-yl)oxy)-N-((4-((((1r,4r)-4-hydroxy-4-methylcyclohexyl)methyl)amino)-3-nitrophenyl)sulfonyl)benzamide] | 0.048 nM | 0.19 nM | 3.9 | 0.18 nM | 0.4 nM
COc1cc(CN2CCN(C3CC4(C3)CN(c3ccc(C(=O)NS(=O)(=O)c5ccc(NC[C@H]6CC[C@](C)(O)CC6)c([N+](=O)[O-])c5)c(Oc5cnc6[nH]cc(F)c6c5)c3)C4)[C@H](c3ccccc3C(C)C)C2)cc2c1OC(C)(C)C=C2 [Example 330, 2-((3-fluoro-1H-pyrrolo[2,3-b]pyridin-5-yl)oxy)-N-((4-((((1r,4r)-4-hydroxy-4-methylcyclohexyl)methyl)amino)-3-nitrophenyl)sulfonyl)-4-(6-((R)-2-(2-isopropylphenyl)-4-((8-methoxy-2,2-dimethyl-2H-chromen-6-yl)methyl)piperazin-1-yl)-2-azaspiro [3.3]heptan-2-yl)benzamide] | 0.26 nM | 0.62 nM | 2.4 | 0.18 nM | 0.79 nM
